Assay results: patent US10640507B2, “PBD antibacterial agents” (KING'S COLLEGE LONDON, priority 2015, dated 2020)
Converted amounts (≈) assume the structure as drawn. Like-named read-outs stand apart in the source and are kept apart here.

Legend:
Format in all cases: cell-based
EMRSA-16 = test: General MIC protocol, Gram positive panel
Experimental: (§1) General Minimum Inhibitory Concentration (MIC) Protocol
(§2) 1. Grow up cultures of bacterial strains to be tested overnight.
(§3) 2. Dilute down overnight cultures to concentration of 1×10^6 bacteria/ml (OD0.01) in Tryptic soy broth (TSB).
(§4) 3. Add 100 μl of TSB media to column 2-column 12 in 96 well plate (keeping column 1 clear).
(§5) 4. Make up compound to a concentration of 64 μg/ml in water (or alternatively to twice the chosen maximum concentration to be tested).
(§6) 5. Add 100 μl of antibiotic solution to the 1st and 2nd columns.
(§7) 6. Using a multichannel pipette take 100 μl from the 2nd column wells and pipette into 3rd column wells and repeat down the 96 well plate (remembering to include controls i.e. uninfected media and media with no antibiotic).
(§8) 7. To each well (except uninfected control row H) add 100 μl of bacterially infected media at a concentration of 1×10^6/ml.
(§9) 8. This dilutes down the concentration of the antibiotic by half (top dose is therefore 32 μg/ml in column 1) and also gives you a starting bacterial concentration of 5×10^5/ml.
(§10) 9. Wrap plate with parafilm to prevent evaporation.
(§11) 10. Leave at desired temperature (37° C. unless specified elsewhere) for 20 hours.
(§12) 11. Next day check plates for growth and measure optical density (i.e. absorbance) at a wavelength of 600 nm (OD600).
(§13) An example of such a plate is shown in FIG. 1 where column A represents wells that receive the top dose 100 μl; column B represents wells that receive the top dose 100 μl+100 μl TSB; and column C represents wells that receive 100 μl TSB. Row H which is marked by a box labelled D represents a blank where the cells receive no bacteria.

[1] = test system: E. faecalis VRE NCTC 12201; test: General MIC protocol, Gram positive panel
Experimental: as §1, §2, §3, §4, §5, §6, §7, §8, §9, §10, §11, §12, §13

E. faecalis VSE NCTC 775 = test: General MIC protocol, Gram positive panel; settings: Enterococcus faecalis, NCTC775; VSE 775
Experimental: as §1, §2, §3, §4, §5, §6, §7, §8, §9, §10, §11, §12, §13

[2] = test system: methicillin sensitive S. aureus ATTC 9144 (NCTC 6571); test: General MIC protocol, Gram positive panel; settings: Staphylococcus aureus, MSSA / NCTC 6571; MSSA 9144
Experimental: as §1, §2, §3, §4, §5, §6, §7, §8, §9, §10, §11, §12, §13

EMRSA-15 = test: General MIC protocol, Gram positive panel
Experimental: as §1, §2, §3, §4, §5, §6, §7, §8, §9, §10, §11, §12, §13

[3] = test system: E. faecium VRE NCTC 12204; test: General MIC protocol, Gram positive panel
Experimental: as §1, §2, §3, §4, §5, §6, §7, §8, §9, §10, §11, §12, §13

K. pneumonia NCTC 13368 = test: General MIC protocol, Gram negative; settings: Klebsiella pneumoniae, NCTC13368
Experimental: as §1, §2, §3, §4, §5, §6, §7, §8, §9, §10, §11, §12, §13

K. pneumonia M6 = test: General MIC protocol, Gram negative; settings: Klebsiella pneumoniae; KP-M6
Experimental: as §1, §2, §3, §4, §5, §6, §7, §8, §9, §10, §11, §12, §13

P. aeruginosa NCTC 13437 = test: General MIC protocol, Gram negative; settings: Pseudomonas aeruginosa, NCTC13437
Experimental: as §1, §2, §3, §4, §5, §6, §7, §8, §9, §10, §11, §12, §13

A. baumannii AYE = test: General MIC protocol, Gram negative; settings: Acinetobacter baumannii
Experimental: as §1, §2, §3, §4, §5, §6, §7, §8, §9, §10, §11, §12, §13

A. baumannii NCTC 17978 = test: General MIC protocol, Gram negative; settings: Acinetobacter baumannii, NCTC17978
Experimental: as §1, §2, §3, §4, §5, §6, §7, §8, §9, §10, §11, §12, §13

P. aeruginosa PA01 = test: General MIC protocol, Gram negative; settings: Pseudomonas aeruginosa, PA01, PA01
Experimental: as §1, §2, §3, §4, §5, §6, §7, §8, §9, §10, §11, §12, §13

[4] = test system: HeLa (Cervical cancer cell line); test: MTT cytotoxicity assay; settings: Homo sapiens, read-out: IC50 HeLa (Cervical cancer cell line)
Experimental: (§14) Two immortalised human cell lines, HeLa and WI38 were used for cytotoxicity screening of the compounds. HeLa is a human cervical cancer cell line and WI38 is a normal healthy cell line. The cell lines were obtained from the American Type Culture Collection. The cell-lines were maintained in monolayer culture in 75 cm2 flasks (TPP, Switzerland) under a humidified 5% CO2 atmosphere at 37° C. The HeLa cell line was maintained in Dulbecco's Modified Eagles Media (DMEM; Invitrogen) supplemented with foetal bovine serum (10% v/v; Invitrogen), L-glutamine (2 mM; Invitrogen), non-essential amino acids (1×; Invitrogen) and Penicillin-Streptomycin (1% v/v, Invitrogen). For WI38, Eagle's Minimum Essential Medium, and Penicillin-Streptomycin (1% v/v, Invitrogen) and foetal bovine serum (10%, nvitrogen) was used. For passaging, cells were washed with phosphate buffered saline [PBS] (GIBCO 14040, Invitrogen, UK), incubated with trypsine (GIBCO 25300, Invitrogen, UK), and re-seeded into fresh medium. For seeding, cells were counted using a Neubauer haemocytometer (Assistant, Germany) by microscopy (Nikon, USA) on a non-adherent suspension of cells that were washed in PBS, trypsinised, centrifuged at 8° C. at 8000 rpm for 5 min and re-suspended in fresh medium.
(§15) The cells were grown in normal cell culture conditions at 37° C. under a 5% CO2 humidified atmosphere using appropriate medium. The cell count was adjusted to 10^5 cells/ml/ and 20,000 cells were added per well. The cells were incubated for 24 hours and 1 μl of the appropriate inhibitor concentrations were to the wells in triplicates. After 24 h of continuous exposure to each compound, the cytotoxicity was determined using the MIT (3-(4,5-Dimethylthiazol-2-yl)-2,5-diphenyltetrazolium bromide) (Lancaster Synthesis Ltd, UK) colorimetric assay. Absorbance was quantified by spectrophotometry at λ=570 nm (Envision Plate Reader, PerkinElmer, USA). IC50 values were calculated by a dose-response analysis using the Prism Graphpad Prism® software. The cytotoxicity results are shown below in Table 12.

WI38 (Healthy cell line) = test: MTT cytotoxicity assay; settings: Homo sapiens, read-out: IC50 WI38 (Healthy cell line)
Experimental: as §14, §15

[5] = WI-38, MTT, 24 h continuous exposure, highest concentration tested 20 μM

Compound	MIC (EMRSA-16) [µg/mL]	MIC [1] [µg/mL]	MIC (E. faecalis VSE NCTC 775) [µg/mL]	MIC [2] [µg/mL]	MIC (EMRSA-15) [µg/mL]	MIC [3] [µg/mL]	MIC (K. pneumonia NCTC 13368) [µg/mL]	MIC (K. pneumonia M6) [µg/mL]	MIC (P. aeruginosa NCTC 13437) [µg/mL]	MIC (A. baumannii AYE) [µg/mL]	MIC (A. baumannii NCTC 17978) [µg/mL]	MIC (P. aeruginosa PA01) [µg/mL]	IC50 ([4]; 24 h) [µM]	IC50 (WI38 (Healthy cell line); WI-38, 24 h) [µM]	IC50 ([4]; MTT, 24 h continuous exposure) [µM]	IC50 (WI38 (Healthy cell line); [5]) [µM]
CCOC(=O)c1nc(NC(=O)c2cc3cc(NC(=O)c4cc(NC(=O)CCCOc5cc6c(cc5OC)C(=O)N5CCC[C@H]5C=N6)cn4C)ccc3s2)cn1C [PP-B14, reference compound]	1 (≈ 1.28 µM)	< 0.125	< 0.125	< 0.125	0.5 (≈ 0.64 µM)	< 0.125	128 (≈ 164 µM)	128 (≈ 164 µM)	128 (≈ 164 µM)	64 (≈ 82 µM)	64 (≈ 82 µM)	> 128				
COc1cc2c(cc1OCCCC(=O)Nc1cc(C(=O)Nc3ccc4oc(C(=O)N5CCOCC5)cc4c3)n(C)c1)N=C[C@@H]1CCCN1C2=O [PP-A147, (S)-4-(4-((7-methoxy-5-oxo-2,3,5,11a-tetrahydro-1H-benzo[e]pyrrolo[1,2-a][1,4]diazepin-8-yl)oxy)butanamido)-1-methyl-N-(2-(morpholine-4-carbonyl)benzofuran-5-yl)-1H-pyrrole-2-carboxamide]	0.25 (≈ 0.366 µM)	< 0.125	< 0.125	< 0.125	< 0.125	< 0.125	32 to 64 (≈ 46.9 to 93.7 µM)	0.5 to 1 (≈ 0.732 to 1.46 µM)	64 (≈ 93.7 µM)	8 (≈ 11.7 µM)	8 (≈ 11.7 µM)	> 128	> 20	> 20		
COc1cc2c(cc1OCCCC(=O)Nc1cc(C(=O)Nc3ccc4sc(C(=O)N5CCOCC5)cc4c3)n(C)c1)N=C[C@@H]1CCCN1C2=O [PP-B16, (S)-4-(4-((7-methoxy-5-oxo-2,3,5,11a-tetrahydro-1H-benzo[e]pyrrolo[1,2-a][1,4]diazepin-8-yl)oxy)butanamido)-1-methyl-N-(2-(morpholine-4-carbonyl)benzo[b]thiophen-5-yl)-1H-pyrrole-2-carboxamide]	0.5 (≈ 0.716 µM)	< 0.125	< 0.125	< 0.125	< 0.125	< 0.125	8 (≈ 11.4 µM)	64 (≈ 91.6 µM)	32 (≈ 45.8 µM)	8 (≈ 11.4 µM)	8 (≈ 11.4 µM)	64 (≈ 91.6 µM)			> 20	> 20
COc1cc2c(cc1OCCCC(=O)Nc1cc(C(=O)Nc3ccc4oc(C(=O)N5CCCCC5)cc4c3)n(C)c1)N=C[C@@H]1CCCN1C2=O [PP-B26, (S)-4-(4-((7-methoxy-5-oxo-2,3,5,11a-tetrahydro-1H-benzo-[e]pyrrolo[1,2-a][1,4]diazepin-8-yl)oxy)butanamido)-1-methyl-N-(2-(piperidine-1-carbonyl)benzofuran-5-yl)-1H-pyrrole-2-carboxamide]	0.5 (≈ 0.734 µM)	< 0.125	0.25 (≈ 0.367 µM)	< 0.125	0.25 (≈ 0.367 µM)	< 0.125	64 (≈ 94 µM)	8 (≈ 11.8 µM)	32 (≈ 47 µM)	2 (≈ 2.94 µM)	2 (≈ 2.94 µM)	128 (≈ 188 µM)			> 20	> 20
